Calls of active or inactive are those of the source.
What was measured:
[1] = biological target: Signal transducer and activator of transcription 3 (Homo sapiens, UniProt P40763); test: STAT3 blockade with qPCR and toxicity readouts – cell-based, STAT1 panel, cytotoxicity, late-stage follow-up, panel member STAT3 Inhibition (AID 2078)
[2] = biological target: Signal transducer and activator of transcription 1-alpha/beta (Homo sapiens, UniProt P42224); test: STAT3 blockade with qPCR and toxicity readouts – cell-based, STAT1 panel, cytotoxicity, late-stage follow-up, panel member STAT1 Inhibition (AID 2078)
[3] = test system: Streptococcus sp. 'group A'; test: Streptococcus pyogenes SK(-)GAS viability under kanamycin – luminescence, BacTiterGlo, confirmation, counter-screen for streptokinase expression inhibitor project, dose response (AID 1900); assay type: functional, organism-based
[4] = biological target: T1, Streptokinase A (Streptococcus pyogenes serotype M1, UniProt P10520); test: viability-normalized secreted streptokinase activity reduction – plasminogen activation absorbance, OD405, dose response (AID 1914); assay type: functional, Streptococcus pyogenes M1 GAS;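 further: secreted streptokinase activity via plasminogen activation per viability signal from cell pellet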
T1 sequence (P10520 whole entry): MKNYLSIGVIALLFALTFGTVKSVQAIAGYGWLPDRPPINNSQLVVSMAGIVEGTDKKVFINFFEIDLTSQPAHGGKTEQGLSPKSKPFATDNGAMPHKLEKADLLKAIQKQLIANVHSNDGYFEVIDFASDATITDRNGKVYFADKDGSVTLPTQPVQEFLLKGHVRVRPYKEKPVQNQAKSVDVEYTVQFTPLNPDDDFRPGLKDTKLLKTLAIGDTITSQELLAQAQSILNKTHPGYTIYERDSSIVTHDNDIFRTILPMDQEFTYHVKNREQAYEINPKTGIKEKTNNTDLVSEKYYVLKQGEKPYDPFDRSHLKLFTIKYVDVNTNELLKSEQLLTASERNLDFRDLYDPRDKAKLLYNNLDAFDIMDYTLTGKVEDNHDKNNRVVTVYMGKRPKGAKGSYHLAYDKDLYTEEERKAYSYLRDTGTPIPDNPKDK

[5] = test system: Streptococcus; test: GAS UMAA2166 growth inhibition – luminescence, BacTiterGlo, counter-screen for streptokinase expression inhibitor project, dose response (AID 1915); assay type: functional, organism-based;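 further: potency for reduction of bacterial viability or growth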
[6] = biological target: T2, Hexokinase HKDC1 (Homo sapiens, UniProt Q2TB90); test: activation of HKDC1 glucose phosphorylation – biochemical, W721R variant, dose response (AID 504730); assay type: functional
T2 sequence (Q2TB90 whole entry): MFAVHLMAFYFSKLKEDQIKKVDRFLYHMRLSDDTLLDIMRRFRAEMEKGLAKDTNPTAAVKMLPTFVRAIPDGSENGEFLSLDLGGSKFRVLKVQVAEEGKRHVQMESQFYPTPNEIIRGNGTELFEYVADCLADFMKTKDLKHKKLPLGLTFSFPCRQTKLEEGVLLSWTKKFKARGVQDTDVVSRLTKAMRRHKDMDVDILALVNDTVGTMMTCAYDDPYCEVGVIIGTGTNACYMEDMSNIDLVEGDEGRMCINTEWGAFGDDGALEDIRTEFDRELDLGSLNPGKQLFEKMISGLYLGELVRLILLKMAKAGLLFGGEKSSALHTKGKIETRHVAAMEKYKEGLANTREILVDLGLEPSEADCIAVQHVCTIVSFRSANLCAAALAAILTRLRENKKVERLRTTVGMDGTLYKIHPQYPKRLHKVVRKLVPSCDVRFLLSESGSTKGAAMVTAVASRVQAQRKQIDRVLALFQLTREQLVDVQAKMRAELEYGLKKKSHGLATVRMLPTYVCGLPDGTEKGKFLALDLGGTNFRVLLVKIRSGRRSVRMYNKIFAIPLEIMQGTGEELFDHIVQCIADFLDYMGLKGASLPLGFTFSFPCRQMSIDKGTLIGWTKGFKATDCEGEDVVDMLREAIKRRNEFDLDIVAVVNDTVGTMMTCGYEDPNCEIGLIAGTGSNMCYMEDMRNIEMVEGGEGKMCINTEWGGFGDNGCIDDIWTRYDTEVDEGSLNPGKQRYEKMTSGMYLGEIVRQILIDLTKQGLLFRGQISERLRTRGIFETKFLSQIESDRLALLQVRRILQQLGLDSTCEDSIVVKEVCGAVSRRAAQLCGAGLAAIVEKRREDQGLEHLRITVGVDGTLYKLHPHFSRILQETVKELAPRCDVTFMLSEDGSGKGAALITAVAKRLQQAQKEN

[7] = biological target: T3, Hexokinase-1 (Homo sapiens, UniProt P19367); test: HK1 enzyme activation by HKDC1 hits – biochemical, selectivity assay for HKDC1 activator project, dose response (AID 504762); assay type: functional
T3 sequence (P19367 whole entry): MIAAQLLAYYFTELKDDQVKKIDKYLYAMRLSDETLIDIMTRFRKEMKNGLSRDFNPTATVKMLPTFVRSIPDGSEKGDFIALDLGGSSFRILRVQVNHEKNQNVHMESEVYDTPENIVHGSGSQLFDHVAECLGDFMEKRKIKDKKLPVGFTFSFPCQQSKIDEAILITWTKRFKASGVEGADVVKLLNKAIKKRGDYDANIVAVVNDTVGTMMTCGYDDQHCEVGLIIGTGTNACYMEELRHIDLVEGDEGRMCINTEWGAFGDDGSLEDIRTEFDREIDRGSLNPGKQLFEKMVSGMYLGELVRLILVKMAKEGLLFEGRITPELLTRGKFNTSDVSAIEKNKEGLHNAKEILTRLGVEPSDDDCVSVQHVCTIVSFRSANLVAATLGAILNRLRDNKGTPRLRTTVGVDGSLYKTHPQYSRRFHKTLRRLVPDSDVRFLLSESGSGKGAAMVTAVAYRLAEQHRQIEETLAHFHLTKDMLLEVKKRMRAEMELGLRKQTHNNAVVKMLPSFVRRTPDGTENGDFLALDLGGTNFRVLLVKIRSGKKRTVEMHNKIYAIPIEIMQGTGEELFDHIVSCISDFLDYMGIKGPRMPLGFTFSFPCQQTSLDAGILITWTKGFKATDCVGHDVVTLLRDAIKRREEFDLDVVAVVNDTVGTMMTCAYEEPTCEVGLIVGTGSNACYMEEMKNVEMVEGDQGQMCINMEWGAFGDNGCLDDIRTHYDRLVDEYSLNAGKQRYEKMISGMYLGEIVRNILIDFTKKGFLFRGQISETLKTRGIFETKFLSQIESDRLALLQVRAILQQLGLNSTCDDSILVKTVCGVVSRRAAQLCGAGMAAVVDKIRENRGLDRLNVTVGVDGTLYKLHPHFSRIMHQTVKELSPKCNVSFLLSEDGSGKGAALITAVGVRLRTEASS

[8] = test system: INS1; test: INS-1E survival protection against cytokine death – cell-based, luminescence, retest, dose response (AID 449756); assay type: functional; details: Rattus norvegicus;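 further: cell death triggered by IL-1 beta plus TNF-alpha plus IFN-gamma mixture; protective hits raise ATP signal compared with cytokine alone wells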
[9] = loss of viability in HepG2 cells – cell-based, CellTiter-Glo, cherry-picked, cytotoxicity control for Shn3 inhibitor project, dose response (AID 624134); assay type: functional
[10] = non-specific 3'UTR reporter inhibition in Clone20-Shn3RL – cell-based, Renilla luciferase, cherry-picked, counter-screen for Shn3 inhibitor project, dose response (AID 624133); assay type: functional
[11] = biological target: T4, SUMO-activating enzyme (Homo sapiens, UniProt Q9UBT2); test: blockers of UBC9-mediated SUMO conjugation – biochemical, AlphaScreen, SUMOylation inhibitor project, confirmation (AID 2018); assay type: functional
[12] = biological target: T5, Voltage-gated N-type calcium channel alpha-1B subunit/Amyloid beta A4 precursor protein-binding family A member 1 (Homo sapiens, UniProt Q00975+Q02410); assay type: protein assay
[13] = biological target: Epstein-Barr nuclear antigen 1 (Epstein-Barr virus (strain B95-8) (HHV-4) (Human herpesvirus 4), UniProt P03211); test: inhibition of EBV nuclear antigen 1 DNA binding – biochemical, fluorescence polarization, 1536-well, dose response (AID 2381); set-up: species or system human gammaherpesvirus 4;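 further: fluorescence polarization of a Cy5 DNA probe bound by EBNA-1 protein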
[14] = biological target: T4, SUMO-activating enzyme; test: blockers of SAE1/SAE2–UBC9 SUMO transfer – biochemical, HTRF, uHTS, primary screen (AID 2006); assay type: protein-complex assay
[15] = biological target: T5, Voltage-gated N-type calcium channel alpha-1B subunit/Amyloid beta A4 precursor protein-binding family A member 1; assay type: protein assay; remark: listed apart in the source
[16] = biological target: Lytic switch protein BZLF1 (Epstein-Barr virus (strain B95-8) (HHV-4) (Human herpesvirus 4), UniProt P03206); test: inhibition of BZLF1 ZTA DNA binding – biochemical, fluorescence polarization, Epstein-Barr virus, 1536-well, counter-screen for EBNA-1 inhibitor project, dose response (AID 2377); set-up: species or system human gammaherpesvirus 4;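 further: fluorescence polarization of Cy5-labelled ZRE DNA probe bound by purified Zta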
[17] = biological target: DNA (cytosine-5)-methyltransferase 1 (Homo sapiens, UniProt P26358); test: inhibition of DNA methylation by DNMT1 – biochemical, fluorescent molecular beacon, confirmation (AID 602386); assay type: functional
[18] = biological target: T6, Low molecular weight phosphotyrosine protein phosphatase (Homo sapiens, UniProt P24666); assay type: functional; details: read-out: IC50_Mean;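 further: Dose-response confirmation assay measuring inhibition of LMPTP enzyme activity by fluorescence intensity read-out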
T6 sequence (P24666 whole entry): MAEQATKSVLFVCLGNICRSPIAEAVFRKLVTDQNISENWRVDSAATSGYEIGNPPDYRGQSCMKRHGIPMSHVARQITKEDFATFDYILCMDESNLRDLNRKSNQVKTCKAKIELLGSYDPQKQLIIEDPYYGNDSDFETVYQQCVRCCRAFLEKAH

T4 sequence (Q9UBE0 whole entry): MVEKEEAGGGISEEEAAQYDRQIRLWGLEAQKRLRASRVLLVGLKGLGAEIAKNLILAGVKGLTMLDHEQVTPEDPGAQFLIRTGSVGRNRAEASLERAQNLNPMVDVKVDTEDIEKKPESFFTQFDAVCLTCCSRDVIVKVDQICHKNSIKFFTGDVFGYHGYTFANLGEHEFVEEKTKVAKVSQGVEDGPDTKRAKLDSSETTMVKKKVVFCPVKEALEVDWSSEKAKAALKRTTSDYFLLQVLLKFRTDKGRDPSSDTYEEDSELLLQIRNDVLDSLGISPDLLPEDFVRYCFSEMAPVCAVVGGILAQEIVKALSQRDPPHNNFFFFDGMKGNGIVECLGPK
T4 sequence (Q9UBT2 whole entry): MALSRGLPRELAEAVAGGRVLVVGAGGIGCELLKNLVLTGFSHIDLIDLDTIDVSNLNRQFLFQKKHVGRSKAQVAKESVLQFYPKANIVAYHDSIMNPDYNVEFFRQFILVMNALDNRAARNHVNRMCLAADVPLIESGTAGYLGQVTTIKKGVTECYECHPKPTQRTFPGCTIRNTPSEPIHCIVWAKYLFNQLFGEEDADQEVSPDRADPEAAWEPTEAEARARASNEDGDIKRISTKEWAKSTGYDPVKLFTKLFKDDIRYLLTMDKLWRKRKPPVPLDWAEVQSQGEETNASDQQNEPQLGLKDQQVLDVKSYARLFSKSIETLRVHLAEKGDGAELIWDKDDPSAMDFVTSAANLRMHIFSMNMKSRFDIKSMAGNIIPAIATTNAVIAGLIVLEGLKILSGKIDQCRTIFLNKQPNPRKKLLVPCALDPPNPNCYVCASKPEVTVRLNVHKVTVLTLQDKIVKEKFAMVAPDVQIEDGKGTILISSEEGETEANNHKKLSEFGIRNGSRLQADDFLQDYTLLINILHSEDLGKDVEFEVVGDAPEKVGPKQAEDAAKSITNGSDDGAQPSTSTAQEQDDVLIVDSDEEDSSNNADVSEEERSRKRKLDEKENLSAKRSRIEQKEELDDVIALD
T5 sequence (Q00975 whole entry): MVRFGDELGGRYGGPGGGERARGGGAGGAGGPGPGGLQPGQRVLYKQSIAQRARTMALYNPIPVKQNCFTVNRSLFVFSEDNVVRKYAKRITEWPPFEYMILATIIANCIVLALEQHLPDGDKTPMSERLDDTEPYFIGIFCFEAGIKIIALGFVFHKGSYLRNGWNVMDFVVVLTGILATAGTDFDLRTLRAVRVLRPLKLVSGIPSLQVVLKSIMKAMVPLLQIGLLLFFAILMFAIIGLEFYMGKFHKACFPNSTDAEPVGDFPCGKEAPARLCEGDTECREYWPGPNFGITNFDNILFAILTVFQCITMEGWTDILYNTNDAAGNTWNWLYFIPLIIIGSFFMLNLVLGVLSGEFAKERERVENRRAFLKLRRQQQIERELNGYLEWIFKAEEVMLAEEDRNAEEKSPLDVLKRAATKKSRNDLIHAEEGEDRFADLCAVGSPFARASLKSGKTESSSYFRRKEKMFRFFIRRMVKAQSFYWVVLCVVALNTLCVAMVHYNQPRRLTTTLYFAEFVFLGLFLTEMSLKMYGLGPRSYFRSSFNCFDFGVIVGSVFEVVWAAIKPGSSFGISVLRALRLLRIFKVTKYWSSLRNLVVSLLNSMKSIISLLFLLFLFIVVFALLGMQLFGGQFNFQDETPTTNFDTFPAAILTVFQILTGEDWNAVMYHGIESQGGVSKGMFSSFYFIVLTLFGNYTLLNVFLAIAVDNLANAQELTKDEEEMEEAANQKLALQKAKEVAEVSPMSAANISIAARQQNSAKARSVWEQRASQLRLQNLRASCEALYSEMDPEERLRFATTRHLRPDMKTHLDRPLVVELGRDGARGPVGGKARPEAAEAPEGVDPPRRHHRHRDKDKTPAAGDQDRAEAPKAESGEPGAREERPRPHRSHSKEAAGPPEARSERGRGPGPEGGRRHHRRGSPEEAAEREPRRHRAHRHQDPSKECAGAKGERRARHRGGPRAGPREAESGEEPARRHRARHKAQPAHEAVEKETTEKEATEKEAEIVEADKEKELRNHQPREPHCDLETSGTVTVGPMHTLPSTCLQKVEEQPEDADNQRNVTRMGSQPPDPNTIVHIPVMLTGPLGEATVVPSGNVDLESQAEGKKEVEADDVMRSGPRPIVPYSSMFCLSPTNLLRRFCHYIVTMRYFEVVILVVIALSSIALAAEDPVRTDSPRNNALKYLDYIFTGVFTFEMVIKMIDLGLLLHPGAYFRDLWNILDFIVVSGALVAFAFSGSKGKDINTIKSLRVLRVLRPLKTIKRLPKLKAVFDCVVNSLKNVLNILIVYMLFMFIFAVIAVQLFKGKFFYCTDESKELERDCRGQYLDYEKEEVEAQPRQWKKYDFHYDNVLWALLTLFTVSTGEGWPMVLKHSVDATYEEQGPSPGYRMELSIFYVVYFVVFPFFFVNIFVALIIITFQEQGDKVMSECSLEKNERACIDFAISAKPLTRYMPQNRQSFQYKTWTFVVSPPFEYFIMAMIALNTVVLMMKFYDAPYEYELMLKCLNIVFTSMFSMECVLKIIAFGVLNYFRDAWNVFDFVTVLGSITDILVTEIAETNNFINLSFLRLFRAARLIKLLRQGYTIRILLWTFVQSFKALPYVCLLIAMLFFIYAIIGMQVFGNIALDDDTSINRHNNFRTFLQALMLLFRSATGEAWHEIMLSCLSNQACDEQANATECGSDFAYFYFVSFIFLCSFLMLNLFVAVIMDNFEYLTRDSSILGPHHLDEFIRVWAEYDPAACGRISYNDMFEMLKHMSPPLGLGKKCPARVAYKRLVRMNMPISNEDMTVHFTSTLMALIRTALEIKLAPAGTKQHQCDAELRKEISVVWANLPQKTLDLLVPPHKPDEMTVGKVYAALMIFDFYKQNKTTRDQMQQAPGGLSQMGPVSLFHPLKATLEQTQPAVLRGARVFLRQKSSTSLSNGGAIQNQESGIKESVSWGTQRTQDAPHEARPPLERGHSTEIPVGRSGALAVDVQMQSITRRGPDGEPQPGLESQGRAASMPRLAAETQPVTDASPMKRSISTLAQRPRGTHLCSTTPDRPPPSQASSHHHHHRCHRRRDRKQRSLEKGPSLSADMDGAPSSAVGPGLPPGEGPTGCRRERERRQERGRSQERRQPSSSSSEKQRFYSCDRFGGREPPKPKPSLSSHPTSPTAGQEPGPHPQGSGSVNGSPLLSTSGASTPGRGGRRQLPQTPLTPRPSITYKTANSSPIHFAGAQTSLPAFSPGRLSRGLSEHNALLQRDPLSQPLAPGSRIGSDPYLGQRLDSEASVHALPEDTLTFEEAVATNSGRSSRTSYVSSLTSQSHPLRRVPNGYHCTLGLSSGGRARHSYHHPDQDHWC
T5 sequence (Q02410 whole entry): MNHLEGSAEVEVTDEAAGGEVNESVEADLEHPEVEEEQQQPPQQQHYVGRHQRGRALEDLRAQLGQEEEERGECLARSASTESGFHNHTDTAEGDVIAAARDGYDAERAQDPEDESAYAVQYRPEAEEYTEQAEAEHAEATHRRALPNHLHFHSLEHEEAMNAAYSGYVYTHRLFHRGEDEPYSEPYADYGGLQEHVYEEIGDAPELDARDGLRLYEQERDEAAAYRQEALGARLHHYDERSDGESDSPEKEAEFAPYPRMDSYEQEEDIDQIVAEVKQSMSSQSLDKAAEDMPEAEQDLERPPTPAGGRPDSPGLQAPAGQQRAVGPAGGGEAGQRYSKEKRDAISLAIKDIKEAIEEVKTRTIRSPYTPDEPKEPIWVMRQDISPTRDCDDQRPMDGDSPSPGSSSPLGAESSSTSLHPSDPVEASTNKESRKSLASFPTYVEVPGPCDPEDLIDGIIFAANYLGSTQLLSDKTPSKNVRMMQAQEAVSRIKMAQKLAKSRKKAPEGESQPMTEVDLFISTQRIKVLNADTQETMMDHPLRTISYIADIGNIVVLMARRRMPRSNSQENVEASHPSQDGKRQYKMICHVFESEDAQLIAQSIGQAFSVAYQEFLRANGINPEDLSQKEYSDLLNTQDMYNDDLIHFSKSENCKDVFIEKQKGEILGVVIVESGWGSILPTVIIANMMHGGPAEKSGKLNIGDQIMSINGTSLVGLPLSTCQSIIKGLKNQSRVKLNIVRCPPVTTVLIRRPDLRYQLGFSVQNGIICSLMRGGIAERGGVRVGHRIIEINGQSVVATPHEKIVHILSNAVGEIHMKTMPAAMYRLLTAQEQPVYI
Signal transducer and activator of transcription 1-alpha/beta, sequence (P42224 whole entry): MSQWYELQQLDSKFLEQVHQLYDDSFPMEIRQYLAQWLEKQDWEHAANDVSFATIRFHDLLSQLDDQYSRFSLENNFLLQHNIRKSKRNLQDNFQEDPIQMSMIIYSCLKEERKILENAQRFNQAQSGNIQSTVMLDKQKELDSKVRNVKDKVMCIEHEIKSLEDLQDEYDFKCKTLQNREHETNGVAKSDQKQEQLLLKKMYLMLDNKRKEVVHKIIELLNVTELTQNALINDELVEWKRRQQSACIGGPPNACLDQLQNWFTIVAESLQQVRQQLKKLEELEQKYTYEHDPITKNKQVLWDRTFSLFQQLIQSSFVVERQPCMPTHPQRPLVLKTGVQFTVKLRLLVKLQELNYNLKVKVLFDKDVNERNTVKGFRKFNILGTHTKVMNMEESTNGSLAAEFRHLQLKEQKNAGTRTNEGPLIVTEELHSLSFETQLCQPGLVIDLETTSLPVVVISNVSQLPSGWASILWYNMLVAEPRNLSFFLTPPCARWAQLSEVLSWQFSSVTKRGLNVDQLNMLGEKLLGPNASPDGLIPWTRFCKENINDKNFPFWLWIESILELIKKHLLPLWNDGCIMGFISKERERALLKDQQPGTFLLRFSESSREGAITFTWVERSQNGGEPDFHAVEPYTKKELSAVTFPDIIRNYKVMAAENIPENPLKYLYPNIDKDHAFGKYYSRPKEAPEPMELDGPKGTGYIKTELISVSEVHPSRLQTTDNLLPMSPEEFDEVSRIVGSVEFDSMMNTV

In the case of `c1ccc(CC2CCN(c3ncnc4sc5c(c34)CCCC5)CC2)cc1`, the IC50 [1] is reported as > 55.7 µM (inactive) and the IC50 [2] is reported as > 55.7 µM (inactive).

With `Fc1ccccc1NC1=NN=C(c2ccccc2)CS1` the EC50 [3] was 4.31 µM (active), the EC50 [4] was > 150 µM (not active) and the EC50 [5] was 9 µM (active). The EC50 [6] was 20.2 µM (inactive), the EC50 [7] was 29.7 µM (inactive) and the AC50 [8] was 7.51 µM (active). For the same compound, the AC50 [9] was 33.5 µM (active) and the AC50 [10] was 11.1 µM (active).

With `O=C(COc1ccc(/C=N/NC(=O)c2ccc(O)cc2)cc1)Nc1ccc([N+](=O)[O-])cc1` the IC50 [11] was 9.81 µM (active), the IC50 [12] was 9.71 µM (active) and the IC50 [13] was 14.5 µM (not active). The IC50 [14] was 8.49 µM (active), the IC50 [15] was > 50 µM (inactive) and the IC50 [16] was > 111 µM (not active). The IC50 [17] was 8.43 µM (active) and the IC50 [18] was 9.58 µM (active).

Source: ChEMBL document CHEMBL1201862, “PubChem BioAssay data set” (2004)
